One test relates to Jurkat FADD−/− cells. The experiment in a line: Jurkat FADD−/− necroptosis assay. Format: cell-based. To be noted: Homo sapiens, 10 ng/mL huTNFα, 24 h, Cell Titer Glo viability, read-out: Jurkat NEC IC50. How it is done:
For the Jurkat FADD^−/− Necroptosis assay, compounds were serially diluted in 100% dimethyl sulfoxide (DMSO) (Sigma-Aldrich catalog no. 41641), and 250 nL was transferred to a sterile 384-well microtiter plate (PerkinElmer catalog no. 6007688) via Echo liquid handler (LABCYTE). Five thousand Jurkat FADD ^−/− cells (ATCC catalog no. CRL-2572) in 20 µL of modified Roswell Park Memorial Institute medium (Gibco catalog no. 10491), 10% fetal calf serum (Gibco catalog no. 100500), 1x Anti/Anti (Gibco catalog no. 15240-062), 1x L-Glutamax (Gibco catalog no. 35050-087), and 1% PenStrep (SIGMA catalog no. P4333) were seeded into each well of the prepared assay plate with compound. Cells and compounds were incubated for 30 min at 37 °C (humidified incubator with 5% CO2). After incubation, 5 µL of recombinant human TNFα (huTNFα) (Biotrend catalog no. cyt-223; 10 ng/mL final concentration [f.c.]) was added to the cells, followed by an incubation of 24 h at 37 °C. Following the incubation, the experimental plates were equilibrated to room temperature (30 min) before 25 µL of Cell Titer Glo Luminescent Cell Viability Assay System reagent (Promega catalog no. G7571) was added to the plate wells, incubated at room temperature for ∼10 min. After incubation, the samples were analyzed for luminescence by using an Envision reader (PerkinElmer).
Each assay plate contained wells with “high” and “low” controls. High controls (100% CTL) were defined as cells treated with DMSO, and low controls (0% CTL) were defined as cells treated with 10 ng/mL recombinant huTNFα. IC50 values were calculated based on the percentage of control values using a four-parameter-fitting model.
All cellular assays were done for Cpd 1, Cpd 2, Cpd 3, Cpd 4, and Cpd 5 in duplicate and in quadruplet for NSA.

The target of another test is T1, MLKL executioner domain (Homo sapiens, UniProt Q8NB16).
T1 construct: 80 µM MLKL N-terminal executioner domain (residues 1 to 154) was used; GST (thrombin cleavage site) (cleaved yes)
T1 sequence (Q8NB16 1-154): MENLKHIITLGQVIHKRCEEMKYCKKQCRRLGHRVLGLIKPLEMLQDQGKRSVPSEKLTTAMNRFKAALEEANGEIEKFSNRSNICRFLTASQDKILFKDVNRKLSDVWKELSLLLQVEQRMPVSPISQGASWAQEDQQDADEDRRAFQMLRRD
The experiment in a line: NMR diffusion experiments (hydrodynamic radius). Format: biochemical. As to the method:
To further characterize the oligomerized MLKL executioner domain, NMR diffusion experiments were conducted directly succeeding the end of the real-time NMR series (orange dots in Fig. 5A). This was compared with a fresh sample of unliganded MLKL executioner domain (black dots in Fig. 5A).
In a next step, we conducted NMR diffusion experiments with NM concentrations above and below the critical micelle concentration of 6 mM, to find out if the increased hydrodynamic radius of the MLKL executioner domain is dependent on the presence of micelles. […] The presence of 500 µM IP6 and 500 µM Cpd 3 had no influence on the hydrodynamic radius of NM (SI Appendix, Fig. S12). […] Therefore, the oligomerization depends on micelles, and the observed species is most likely a micelle-integrated oligomeric MLKL executioner domain. […]
NMR diffusion experiments were recorded as pseudo two-dimensional experiments with varying gradient strength either as a ^15N-filtered NMR experiment ([42]) (recorded with ^15N-labeled protein). […]
where d is the diffusion constant. […] The hydrodynamic radius was calculated by using the determined diffusion constants of the component of interest (d) and dioxane (ddioxane) and the known hydrodynamic radius of dioxan (2.12 Å) ([23]) using Eq. 4. rH=2.12Å⋅ddioxane/d, [4] […]

As a reminder, the IC50 is the concentration that gives 50% inhibition.

Turning to `Cn1c(=O)c2c(nc(S(C)(=O)=O)n2C)n(CC#Cc2cccc(O)c2)c1=O` [Cpd 3], the IC50 in the test with Jurkat FADD−/− cells was determined as 541 nM. Also, the “Oligomeric state of the MLKL executioner domain” value on MLKL executioner domain (12 mM NM + 500 µM IP6 + 500 µM Cpd 3, after 2 d of incubation, 57 Å without compound) was “completely monomeric”. Moreover, the “Hydrodynamic radius of the MLKL executioner domain” value at MLKL executioner domain (complex with 500 µM Cpd 3, 12 mM NM + 50 µM IP6, after time course, 60 Å without Cpd 3, 19 Å unliganded) was 30 Å.

(Values after article PMC7777204, “Locking mixed-lineage kinase domain-like protein in its auto-inhibited state prevents necroptosis” (Proceedings of the National Academy of Sciences of the …, 2020).)
